Here are results for 1 compound from US7410765B2, “System for protease mediated protein expression” (The Regents of the University of California, priority 2004, dated 2008).

The experiment concerns caspase-3. Put plainly: Caspase-3-dependent DsRed fluorescence in live transgenic zebrafish embryos injected with the UbG-DEVDsRx reporter construct. Type of experiment: in vivo.

Experimental: As discussed in detail below, the invention was tested by making a construct where the degradation signal is a non-removable ubiquitin moiety (G76V zebrafish ubiquitin mutant) fused to the red fluorescent protein DsRed Express by a linker containing a caspase-3 cleavage site (amino acid sequence: DEVD; SEQ ID NO: 1). […] The DNA construct was microinjected in one-cell-stage zebrafish embryos to generate transgenic fish where apoptotic cells express the red fluorescent marker.
Specific labelling of apoptotic cells by UbG-DEVDsRx depends on a functional proteasomal degradation pathway because failure to degrade the UbG76V-tagged chimera would allow fluorescence to develop, even in the absence of caspase-3 activity.
Morpholino-modified oligonucleotides were injected in the yolk of one-cell-stage embryos. DNA constructs were linearized and injected in the cytoplasm of one-cell-stage embryos. For each experiment, 200-250 transgenics were generated. Upon reaching the desired age, 20-30 embryos with similar transgene expression levels and low-mosaicism were selected for TUNEL labelling, confocal microscopy, in vivo observations and cell counts.
Fixed and live embryos were embedded in 1.2% low-melt agarose on a glass slide and immersed in a drop of water to retain humidity.

Take `COC(=O)CC[C@H](NC(=O)[C@H](CC(=O)OC)NC(=O)OCc1ccccc1)C(=O)N[C@H](C(=O)N[C@@H](CC(=O)OC)C(=O)CF)C(C)C` [Z-DEVD-FMK]: the “expression of red fluorescence in embryo injected with the test construct” value (embryo incubated in the presence of Z-DEVD-FMK, 75 μM, FIG. 1e) is listed as “does not express any fluorescence”. Also, the “fluorescence (UbG-DEVDsRx labelling) in living transgenic embryos” value (embryos exposed to the caspase-3 inhibitor, concentration not given) was “fluorescence is absent”.
